ChEMBL document CHEMBL5137054, “Xyloketal B Reverses Nutritional Hepatic Steatosis, Steatohepatitis, and Liver Fibrosis through Activation of the PPARα/PGC1α Signaling Pathway” (J Nat Prod, 2022)
Activity calls are given as the source filed them. The rule behind the calls is not given here.

Tests used:
[1] = Toxicity in C57BL/6J mouse assessed as effect on serum cholesterol level at 40 mg/kg, ip; format: organism-based; conditions: in vivo
Mus musculus [2] = test: Anti-inflammatory activity against MCD-induced C57BL/6J mouse model of nonalcoholic steatohepatitis assessed as downregulation of COX-2 expression in liver at 20 to 40 mg/kg/day, ip administered from week 3 to week 4 by immunoblotting analysis; format: functional, organism-based; conditions: dose 20-40 mg/kg/day, time 2.0 weeks
Mus musculus [3] = test: Reduction in hepatic steatosis in HFD-induced C57BL/6J mouse model of NAFL assessed as increase in serum ApoE level at 20 to 40 mg/kg/day, ip administered from week 7 to week 12; format: functional, organism-based; conditions: dose 20-40 mg/kg/day, time 6.0 weeks
Mus musculus [4] = test: Upregulation of peroxisomal bifunctional enzyme expression in liver of HFD-induced C57BL/6J mouse model of NAFL at 15 mg/kg/day, ip administered from week 7 to week 12 by immunoblotting analysis; format: functional, organism-based; conditions: time 6.0 weeks
Mus musculus [5] = test: Reduction in hepatic steatosis in HFD-induced C57BL/6J mouse model of NAFL assessed as reduction in HFD-induced relative liver weight at 20 to 40 mg/kg/day, ip administered from week 7 to week 12; format: functional, organism-based; conditions: dose 20-40 mg/kg/day, time 6.0 weeks
[6] = Toxicity in C57BL/6J mouse assessed as effect on serum ApoE level at 40 mg/kg, ip; format: organism-based; conditions: in vivo
[7] = Toxicity in C57BL/6J mouse assessed as effect on serum AST/ALT ratio at 40 mg/kg, ip; format: organism-based; conditions: in vivo
Mus musculus [8] = test: Upregulation of long-chain specific acyl-CoA dehydrogenase gene transcriptional level in HFD-induced C57BL/6J mouse model of NAFL at 20 to 40 mg/kg/day, ip administered from week 7 to week 12 by qRT-PCR analysis; format: functional, organism-based; conditions: dose 20-40 mg/kg/day, time 6.0 weeks
Mus musculus [9] = test: Antifibrotic activity against MCD-induced C57BL/6J mouse model of liver fibrosis assessed as reduction in number of collagenous fibers in liver at 20 to 40 mg/kg, ip administered from week 3 to week 6 by masson's trichrome staining based light microscopic analysis; format: functional, organism-based; conditions: dose 20-40 mg/kg, time 4.0 weeks
Mus musculus [10] = test: Antifibrotic activity against MCD-induced C57BL/6J mouse model of liver fibrosis assessed as reduction in MMP3 level in liver administered intraperitoneally from week 3 to week 6 by immunoblotting analysis; format: functional, organism-based; conditions: dose 20-40 mg/kg, route ip, time 4.0 weeks, DDE = dose-dependent effect
Mus musculus [11] = test: Upregulation of peroxisomal acyl-coenzyme A oxidase-2 enzyme expression in liver of HFD-induced C57BL/6J mouse model of NAFL administered intraperitoneally from week 7 to week 12 by immunoblotting analysis; format: functional; conditions: dose 20-40 mg/kg/day, route ip, time 6.0 weeks, DDE = dose-dependent effect
[12] = Toxicity in C57BL/6J mouse assessed as effect on lipid droplets in hepatocytes at 40 mg/kg, ip by H&E staining analysis; format: organism-based; conditions: in vivo
Mus musculus [13] = test: Upregulation of cytochrome P450-4A10 enzyme expression in liver of HFD-induced C57BL/6J mouse model of NAFL administered intraperitoneally from week 7 to week 12 by immunoblotting analysis; format: functional; conditions: dose 20-40 mg/kg/day, route ip, time 6.0 weeks, DDE = dose-dependent effect
Mus musculus [14] = test: Upregulation of cytochrome P450-4A10 enzyme expression in liver of HFD-induced C57BL/6J mouse model of NAFL at 15 mg/kg/day, ip administered from week 7 to week 12 by immunoblotting analysis; format: functional, organism-based; conditions: time 6.0 weeks
Mus musculus [15] = test: Upregulation of carnitine O-palmitoyltransferase-1B enzyme expression in liver of HFD-induced C57BL/6J mouse model of NAFL administered intraperitoneally from week 7 to week 12 by immunoblotting analysis; format: functional; conditions: dose 20-40 mg/kg/day, route ip, time 6.0 weeks, DDE = dose-dependent effect
Mus musculus [16] = test: Upregulation of peroxisomal bifunctional enzyme expression in liver of HFD-induced C57BL/6J mouse model of NAFL administered intraperitoneally from week 7 to week 12 by immunoblotting analysis; format: functional; conditions: dose 20-40 mg/kg/day, route ip, time 6.0 weeks, DDE = dose-dependent effect
Mus musculus [17] = test: Reduction in hepatic steatosis in HFD-induced C57BL/6J mouse model of NAFL assessed as reduction in serum LDL level at 20 to 40 mg/kg/day, ip administered from week 7 to week 12; format: functional, organism-based; conditions: dose 20-40 mg/kg/day, time 6.0 weeks
Mus musculus [18] = test: Reduction in hepatic steatosis in HFD-induced C57BL/6J mouse model of NAFL assessed as reduction in number of lipid droplets in hepatocytes at 20 to 40 mg/kg/day, ip administered from week 7 to week 12 by H&E staining analysis; format: functional, organism-based; conditions: dose 20-40 mg/kg/day, time 6.0 weeks
Mus musculus [19] = test: Antifibrotic activity against MCD-induced C57BL/6J mouse model of liver fibrosis assessed as reduction in MMP2 level in liver administered intraperitoneally from week 3 to week 6 by immunoblotting analysis; format: functional, organism-based; conditions: dose 20-40 mg/kg, route ip, time 4.0 weeks, DDE = dose-dependent effect
Mus musculus [20] = test: Antifibrotic activity against MCD-induced C57BL/6J mouse model of liver fibrosis assessed as reduction in TIMP1 level in liver administered intraperitoneally from week 3 to week 6 by immunoblotting analysis; format: functional, organism-based; conditions: dose 20-40 mg/kg, route ip, time 4.0 weeks, DDE = dose-dependent effect
Mus musculus [21] = test: Anti-inflammatory activity against MCD-induced C57BL/6J mouse model of nonalcoholic steatohepatitis assessed as downregulation of TNFalpha expression in liver at 20 to 40 mg/kg/day, ip administered from week 3 to week 4 by immunoblotting analysis; format: functional, organism-based; conditions: dose 20-40 mg/kg/day, time 2.0 weeks
Mus musculus [22] = test: Antifibrotic activity against MCD-induced C57BL/6J mouse model of liver fibrosis assessed as reduction in TGFbeta level in liver administered intraperitoneally from week 3 to week 6 by immunoblotting analysis; format: functional, organism-based; conditions: dose 20-40 mg/kg, route ip, time 4.0 weeks, DDE = dose-dependent effect
Mus musculus [23] = test: Anti-inflammatory activity against MCD-induced C57BL/6J mouse model of nonalcoholic steatohepatitis assessed as attenuation of VCAM1 expression in liver at 20 to 40 mg/kg/day, ip administered from week 3 to week 4 by immunoblotting analysis; format: functional, organism-based; conditions: dose 20-40 mg/kg/day, time 2.0 weeks
Mus musculus [24] = test: Upregulation of carnitine O-palmitoyltransferase-1B enzyme expression in liver of HFD-induced C57BL/6J mouse model of NAFL at 15 mg/kg/day, ip administered from week 7 to week 12 by immunoblotting analysis; format: functional, organism-based; conditions: time 6.0 weeks
Mus musculus [25] = test: Upregulation of Medium-chain specific acyl-CoA dehydrogenase gene transcriptional level in HFD-induced C57BL/6J mouse model of NAFL at 20 to 40 mg/kg/day, ip administered from week 7 to week 12 by qRT-PCR analysis; format: functional, organism-based; conditions: dose 20-40 mg/kg/day, time 6.0 weeks
Mus musculus [26] = test: In vivo activation of PPARalpha/PGC1alpha pathway in HFD-induced C57BL/6J mouse model of NAFL assessed as increase in PGC1alpha expression in liver administered intraperitoneally from week 7 to week 12 by immunoblotting analysis; format: functional, organism-based; conditions: dose 20-40 mg/kg/day, route ip, time 6.0 weeks
Mus musculus [27] = test: Upregulation of Acox1 gene transcriptional level in HFD-induced C57BL/6J mouse model of NAFL at 20 to 40 mg/kg/day, ip administered from week 7 to week 12 by qRT-PCR analysis; format: functional, organism-based; conditions: dose 20-40 mg/kg/day, time 6.0 weeks
Mus musculus [28] = test: Upregulation of Acox2 gene transcriptional level in HFD-induced C57BL/6J mouse model of NAFL at 20 to 40 mg/kg/day, ip administered from week 7 to week 12 by qRT-PCR analysis; format: functional, organism-based; conditions: dose 20-40 mg/kg/day, time 6.0 weeks
Mus musculus [29] = test: Reduction in hepatic steatosis in HFD-induced C57BL/6J mouse model of NAFL assessed as reduction in serum ALT level at 20 to 40 mg/kg/day, ip administered from week 7 to week 12; format: functional, organism-based; conditions: dose 20-40 mg/kg/day, time 6.0 weeks

With `C[C@H]1CO[C@]2(C)Oc3cc(O)c4c(c3C[C@H]12)O[C@@]1(C)OC[C@H](C)[C@H]1C4` the Activity [1] was “Non-Toxic”, the Activity (Mus musculus [2]) was “Active” and the Activity (Mus musculus [3]) was “Active”. The Activity (Mus musculus [4]) was “Active”, the Activity (Mus musculus [5]) was “Active” and the Activity [6] was “Non-Toxic”. For the same compound, the Activity [7] was “Non-Toxic”, the Activity (Mus musculus [8]) was “Active” and the Activity (Mus musculus [9]) was “Active”. The Activity (Mus musculus [10]) was “Dde”, the Activity (Mus musculus [11]) was “Dde” and the Activity [12] was “Non-Toxic”. For the same compound, the Activity (Mus musculus [13]) was “Dde”, the Activity (Mus musculus [14]) was “Active” and the Activity (Mus musculus [15]) was “Dde”. For the same compound, the Activity (Mus musculus [16]) was “Dde”, the Activity (Mus musculus [17]) was “Active” and the Activity (Mus musculus [18]) was “Active”. The Activity (Mus musculus [19]) was “Dde”, the Activity (Mus musculus [20]) was “Dde” and the Activity (Mus musculus [21]) was “Active”. The Activity (Mus musculus [22]) was “Dde”, the Activity (Mus musculus [23]) was “Active” and the Activity (Mus musculus [24]) was “Active”. The Activity (Mus musculus [25]) was “Active”, the Activity (Mus musculus [26]) was “Active” and the Activity (Mus musculus [27]) was “Active”. For the same compound, the Activity (Mus musculus [28]) was “Active” and the Activity (Mus musculus [29]) was “Active”.
